Test results taken from US20210238224A1, “METHOD OF CONSTRUCTING PROTAC BY USING DOUBLE TARGETS” (THE FIRST AFFILIATED HOSPITAL OF SUN YAT-SEN UNIVERSITY, priority 2018, published 2021).

Target: T1, Smad3 (Rattus norvegicus, UniProt P84025)
T1 construct: endogenous in cells; host or cells: NRK49F rat kidney fibroblasts, stimulated with TGF-β1
Test: Western blot of Smad3 degradation in TGF-β1-stimulated rat kidney fibroblasts
Assay type: cell-based
Conditions: NRK49F cells, 48 hours, FIGS. 6(A), 6(B)
Experimental: Rat kidney fibroblasts (NRK49F cell line) are cultured in vitro, passage 1:3 or 1:4 to six-well plates before cell fusion, and are divided into a TGF-β1 control group (TGF-β1 10 ng/ml), a PROTAC-PEG action group (TGF-β1 10 ng/ml+PROTAC-PEG of different concentrations: 1, 5, 25, 125 nM), and a PROTAC-butanedioic acid action group (TGF-β1 10 ng/ml+PROTAC-butanedioic acid of different concentrations: 1, 5, 25, 125 nM); the cells are lysed after 48 hours of culture and are used for Western blot.

T1 sequence (P84025 whole entry): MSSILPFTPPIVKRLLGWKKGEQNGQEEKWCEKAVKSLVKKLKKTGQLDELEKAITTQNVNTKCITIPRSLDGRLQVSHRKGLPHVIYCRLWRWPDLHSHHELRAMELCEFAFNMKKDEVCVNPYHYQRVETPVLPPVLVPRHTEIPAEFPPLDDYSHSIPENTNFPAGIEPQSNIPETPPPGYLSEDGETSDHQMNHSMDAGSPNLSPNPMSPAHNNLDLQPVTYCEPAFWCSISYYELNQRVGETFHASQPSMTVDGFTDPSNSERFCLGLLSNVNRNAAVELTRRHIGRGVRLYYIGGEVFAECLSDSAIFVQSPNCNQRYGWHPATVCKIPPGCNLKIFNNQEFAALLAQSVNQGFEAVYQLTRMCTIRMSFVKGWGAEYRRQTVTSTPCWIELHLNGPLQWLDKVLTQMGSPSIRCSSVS

- effective concentration for Smad3 degradation (TGF-β1 10 ng/ml): 25 nM
Structure (SMILES): C[C@@H](NC(=O)[C@@H]1C[C@@H](O)CN1C(=O)[C@@H](NC(=O)CCC(=O)NC(c1cccnc1)c1cc2ccccc2o1)C(C)(C)C)c1ccc(-c2cc(N)cs2)cc1 (stereo partly drawn) [PROTAC-butanedioic acid]
- degradation of target protein Smad3 (Western blot) (TGF-β1 10 ng/ml + PROTAC 1, 5, 25, 125 nM): degrades the target protein Smad3 in a concentration-dependent manner
- Smad3-degrading activity compared with PROTAC-PEG (TGF-β1 10 ng/ml): significantly higher than that of PROTAC-PEG
